A short description of data set [1]: Plasma concentration in rat at 250 mg/kg, po after 2 hrs. The data set is classed as ADME, organism-based.
A short description of data set [2]: Plasma concentration in rat at 100 mg/kg, po after 2 hrs. The data set is classed as ADME, organism-based.
Data set [3] can be described thus: Plasma concentration in rat at 30 mg/kg, po after 2 hrs.

Drawing on ChEMBL document CHEMBL6087387, “Carbon Monoxide as a Potential Therapeutic Agent: A Molecular Analysis of Its Safety Profiles” (J Med Chem, 2024), this text covers concentration for five molecules.

Some results are limits rather than exact numbers.

`O=C(O)c1cn(C2CC2)c2cc(N3CCNCC3)c(F)cc2c1=O` [CIPROFLOXACIN] showed a concentration at 2 h in data set [1] of 3.8 µM.
Turning to `COc1cccc2c1C(=O)c1c(O)c3c(c(O)c1C2=O)C[C@@](O)(C(=O)CO)C[C@@H]3O[C@H]1C[C@H](N)[C@H](O)[C@H](C)O1` [DOXORUBICIN], in data set [2], the concentration at 2 h came to 1.15 µM.
Molecule `O=c1[nH]cc(F)c(=O)[nH]1` [FLUOROURACIL] displayed a concentration at 2 h in data set [1] of 420 µM.
As for `COc1ccc2cc([C@H](C)C(=O)O)ccc2c1` [NAPROXEN], the concentration at 2 h in data set [3] is above 300 µM.
With `CC(=O)O[C@H]1C(=O)[C@@]2(C)[C@H]([C@H](OC(=O)c3ccccc3)[C@]3(O)C[C@H](OC(=O)[C@H](O)[C@@H](NC(=O)c4ccccc4)c4ccccc4)C(C)=C1C3(C)C)[C@]1(OC(C)=O)CO[C@@H]1C[C@@H]2O` [PACLITAXEL], the concentration at 2 h in data set [2] was 3.1 µM.
